Entries after “also recorded” stand apart in the source; their conditions may differ.
Experiments:
Type in all cases: cell-based
CART cells = assay: In vitro CART19 exhaustion assay
Experimental: (§1) FIG. 11 contains an exemplary timeline for an in vitro CART19 exhaustion assay in the presence of TP0903. T cells were incubated with target cells at a 1:5 ratio (experiments were done using JEKO cells as well as primary B cells). The low E:T ratio was used to induce a state of dysfunction of CART cells. Cells were cultured in the presence of increasing doses of TP0903. On day 5 of co-culture, cells were harvested, and expression of inhibitory receptors was analyzed. Co-culture in the presence of TP0903 reduces expression of PD1, TIM3, and LAG3 inhibitory receptors.
as §1, with “T” for “FIG. 11 contains an exemplary timeline for an in vitro CART19 exhaustion assay in the presence of TP0903. T”, “reduced” for “reduces”, “receptors. TP0903 reduced exhaustion receptors on CART cells (FIG. 12).” for “receptors.”

regulatory CART cells = assay: Regulatory CART cells in CART19 co-culture with targets; conditions: increasing doses of TP0903; CART19 co-cultured with targets
Source text: FIG. 17. Increasing doses of TP0903 reduced regulatory CART cells when CART19 are co-cultured with their targets.

CART19 cells = assay: RNA-seq of TP0903 treated vs non-treated CART19 cells
Experimental: FIG. 24A-B. A. Western blot analysis of p-LCK inhibition by TP0903 in CART19 cells. CART19 cells were incubated with lethally irradiated JeKo-1 in the presence of TP0903 at a 1 to 3 ratio for 24 hours. After the incubation, CART19 cells were purified with anti-CD19 micro beads. […] B. Comparison of gene expression between TP0903 treated CART19 cells and non-treated CART19 cells subpopulations using RNA-seq. CART19 cells from three biological replicates were thawed and stimulated with irradiated JeKo-1 (120 Gy) for 5 days. Each sample was treated with either 30 nM TP0903 (treated condition) or DMSO (untreated condition). Representative flow cytometric analysis of CART19 cells before RNA isolation (right). RNA-seq was performed on an Illumina […] by the Genomic Sequencing Core at Mayo Clinic.
FIG. 28A-E. A, Western blot analysis of p-LCK inhibition by TP-0903 in CART19 cells. CART19 cells were incubated with lethally irradiated JeKo-1 in the presence of TP0903 at a 1 to 3 ratio for 24 hours. After the incubation, CART19 cells were purified with anti-CD19 micro beads. B, Representative flow cytometric analysis of CART19 cells before RNA isolation. Principal component analysis (PCA) from RNA-seq analysis of untreated cells and cells treated with 30 nM of TP-0903. […]

With `CN1CCN(Cc2ccc(Nc3ncc(Cl)c(Nc4ccccc4S(=O)(=O)N(C)C)n3)cc2)CC1` [TP0903] the “expression of PD1, TIM3, and LAG3 inhibitory (exhaustion) receptors on CART cells” value (CART cells; 1:5 E:T, JEKO or primary B cells, increasing doses of TP0903, day 5) was “reduces; also recorded: downregulated in a dose depended manner”, the “inhibitory receptors on activated CART cells” value (CART cells; CART19 with Jeko, Example 2) was “significantly downregulated” and the “regulatory CART cells” value (regulatory CART cells) was “reduced”. For the same compound, the “immune synapse related genes (cell junction, cell migration)” value (CART19 cells; activated CART cells treated with TP0903) was “significantly increased” and the “differentially expressed genes in transcriptome vs non-treated cells” value (CART19 cells; activated CART cells treated with TP0903 (30 nM)) was “More than 100 genes”.

From patent US20210145830A1, “MATERIALS AND METHODS FOR TREATING CANCER” (Mayo Foundation for Medical Education and Research, priority 2018, published 2021)
